Measured values from article PMC6005341, “Identification of “sarsasapogenin-aglyconed” timosaponins as novel Aβ-lowering modulators of amyloid precursor protein processing” (Chemical Science, 2016).

Key:
[1] = system: Mouse primary cortical neurons; design: method as in earlier work; details: ref J. Biol. Chem. (2005) 280: 5829, J. Biol. Chem. (2010) 285:28472, read-out: In vitro IC50 Aβ inhibition; cited from earlier work
[2] = system: brain Aβ / amyloid in APPswe transgene; details: cited from earlier work
HEK293 expressing APPswe = system: HEK293 expressing APPswe; design: method as in J Neurosci Res (2012) 92: 108; details: ref J Neurosci Res (2012) 92: 108, read-out: In vitro IC50 Aβ inhibition; cited from earlier work
HEK293 expressing APP = system: HEK293 expressing APP; design: method as in J. Biol. Chem. (2010) 285:9110; details: ref J. Biol. Chem. (2010) 285:9110, read-out: In vitro IC50 Aβ inhibition; cited from earlier work
[3] = system: Brain Aβ42 in APP/PS1 transgene; design: method as in J. Biol. Chem. (2010) 285:9110; details: diet with 0.35% for 15 weeks, ref J. Biol. Chem. (2010) 285:9110; cited from earlier work
[4] = system: Aβ42 production in N2A-APPswe cells; experiment: Aβ42 in conditioned medium of N2A-APPswe cells by ELISA, 18 h treatment; format: cell-based; details: for IC50: N2a-APPswe, read-out: IC50 in lowering Aβ42 production, N2A-APPswe cells, mean ± standard deviation, n ≥ 3
Description: Sigma-Aldrich Chemical Co. unless otherwise specified. SSG (1) was purchased from Wako Pure Chemical Industries, Ltd. Diosgenin (6), Dioscin (9), Polyphyllin D (10), Timosaponin BI (22) and Timosaponin BII (23) were purchased from Chengdu Must Bio-Technology Co.
Ltd. Yamogenin (7) was bought from Ambinter c/o Greenpharma while Smilagenin (24) was bought from Steraloids Inc. Substances dissolved in DMSO as stock solutions. Cell culture medium constituents were purchased from Life Technologies, Inc.
Cell culture: Neuro-2A cells expressing Swedish mutants of APP (N2A-APPswe provided by Prof. Yifan Han, The Hong Kong Polytechnic University)1 was cultured in minimal essential medium with 2 mM glutamine, 2 mM pyruvate and 10% fetal bovine serum. […]
(§1) Aβ ELISA: Aβ concentrations in conditioned medium were assayed using ELISA kits for […]

[5] = system: Aβ40 and Aβ38 in N2A-APPswe cells; experiment: Aβ40 and Aβ38 in conditioned medium of N2A-APPswe cells by ELISA; format: cell-based; details: compared with Aβ42
Description: as §1

β-secretase = system: β-secretase; design: method as in PMID 23082924; details: rat retina; cited from earlier work
[6] = system: SH-SY5Y Cells expressing APP; design: method as in J Neurosci. (2005) 25: 3032; J. Biol. Chem (2011) 286:14028; details: ref J Neurosci. (2005) 25: 3032, J. Biol. Chem (2011) 286:14028, read-out: In vitro IC50 Aβ inhibition; cited from earlier work
Aβ42 levels in the brain = experiment: In vivo brain Aβ42 level by ELISA after oral dosing; details: 100 mg kg^–1 oral gavage, three times in 2 days, 3–5 month old C57BL/6 mice
Description: was performed at least three times. The lowest binding scores were computed and the conformations of the corresponding binding pose presented.
Quantum mechanics/Molecular mechanics. The binding between transmembrane and substrate was further optimized using the QM/MM approach and NWChem software. The quantum part (QM) included TAIII (total 116 atoms), while the rest of the system was modelled as the molecular mechanics (MM) level. The QM region was treated at the DFT level using the B3LYP method. The 6-31G* Pople basis set was employed for all the atoms.
The transmembrane was described with the AMBER parm99 force field. The binding structure was solvated in a cubic box with 6872 classical SPC/E water molecules. Three negative counter ions (Cl-) were added to neutralize the charges in the system. The structure was optimized by performing the BFGS algorithm for the QM part and the steepest descent algorithm for the MM part. The optimization of these two regions (QM and MM) was alternated until self-consistency was reached.
Animal experiments: Male C57BL/6N mice were housed in environmentally controlled room (temperature: 25 ± 2 °C, humidity: 50 ± 5%, 12-h light-dark cycle) in Laboratory Animal Unit, The University of Hong Kong and were freely access to food and water. TAIII, TAI SSG and compound 34 were dissolved in 5% Tween 80 and given to the mice by oral gavage at three repeated doses of 100 mg/kg in 48 hours. Mice were administrated with 5% Tween 80 (control group), TAIII, TAI SSG and 34. The experimental procedures were performed with the approval of Committee of Use of Live Animal for Teaching and Research of The University of Hong Kong. Blood (about 600-800 µL) was collected by cardiac puncture and added with 1/10 volume of Na2EDTA (20 mg/mL) to prevent coagulation. After centrifugation at 3000 g for 15 min at 4 °C, plasma was transferred to a centrifuge tube. […] Both plasma and brain samples were stored at -80 °C until they were analyzed. The Aβ42 levels were determined by Wako High Sensitive Aβx-42 ELISA kit. […]

[7] = Plasma and brain concentrations by LC-MS/MS; format: in vivo, mice
Description: Animal experiments: Male C57BL/6N mice were housed in environmentally controlled room (temperature: 25 ± 2 °C, humidity: 50 ± 5%, 12-h light-dark cycle) in Laboratory Animal Unit, The University of Hong Kong and were freely access to food and water. TAIII, TAI SSG and compound 34 were dissolved in 5% Tween 80 and given to the mice by oral gavage at three repeated doses of 100 mg/kg in 48 hours. Mice were administrated with 5% Tween 80 (control group), TAIII, TAI SSG and 34. The experimental procedures were performed with the approval of Committee of Use of Live Animal for Teaching and Research of The University of Hong Kong. Blood (about 600-800 µL) was collected by cardiac puncture and added with 1/10 volume of Na2EDTA (20 mg/mL) to prevent coagulation. After centrifugation at 3000 g for 15 min at 4 °C, plasma was transferred to a centrifuge tube. The brain was dissected into two hemispheres on ice, weighed and frozen in liquid nitrogen immediately. The left brain was homogenized with 1 mL of buffer containing 5 M guanidine HCl, 50 mM Tris HCl, pH 8.0, with protease inhibitor cocktail and AEBSF using a Polytron and the homogenates were allowed to stand at room temperature for 3h. Both plasma and brain samples were stored at -80 °C until they were analyzed. […]
B. Determination of timosaponin levels in mice plasma and brain by ultra-high pressure liquid chromatography tandem mass spectrometry
The UPLC-ESI-QTOF consists of a Waters Q-TOF PremierTM mass spectrometer (Micromass MS Technologies, Manchester, UK) operated in positive ion mode and a Waters ACQUITY TM UPLC system. The mass spectrometer conditions were optimized as follows: source […]
temperature, 120 °C; desolvation temperature, 500 °C; nebulization gas flow rate, 1000 L/h; cone gas flow rate, 20 L/h; capillary voltage, 2.5 kV; sampling cone voltage, 28V. The data were collected into two separate data channels with the instrument spending 0.5 s on data acquisition for each channel and a 0.1 s inter-channel delay. The mass spectrometer was calibrated by using the solution of sodium formate (0.5 mM) and the TOF scan range was from 100 to 1000 Da. In order to improve mass measurement accuracy a lock mass compound (50 pg µL−1 solution of leucine encephalin; m/z 556.2771) was continuously infused at a 0.5 mL min-1 using the built-in syringe pump of the instrument.
Sample was loaded into a Waters ACQUITY TM BEH C18 column (100 × 2.1 mm i.d., 1.7 µM) connected to a Waters ACQUITY TM BEH C18 guard column (5 × 2.1 mm i.d., 1.7 µM). The gradient elution system consisted of 0.1% formic acid in water (A) and 0.1% formic acid in acetonitrile (B). Separation was achieved by using: 30%-55% B from 0 to 3 min; 55-100% B from 3 to 6 min; 100% B from 6 to 12 min and returned to initial conditions and equilibrated for 3 minutes. The flow rate was 0.3 mL/min and the injection volume was 5 µL.
Standard preparation and sample preparation
Stock solution (10 µM ) of each analyte was prepared by dissolving in methanol. They were subject to serial dilution to give calibration curves of SSG 1 (plasma: y = 8.7485× - 0.0676; […]
each concentration of each analyte was transferred to a centrifuge tube and evaporated to dryness by a concentrator. Dioscin (20 µL , 10 µM) was added as an internal standard followed by methanol (130 µL) and control plasma (50 µL). The mixture was vortexed for 5 s and centrifuged (15000 × g) for 15 min. The supernatant was collected and evaporated to dryness by a concentrator. Methanol (100 µL) was added and then vortexed again for 10 s and centrifuged (15000 × g) for 20 min. The supernatant (5 µL) was subject to LC-MS/MS analysis. Analyte-treated plasma, control brain and analyte-treated brain were prepared in a […]
The acquisition and processing of data were performed by Masslynx (version 4.1) software.
Mass window of ±10 mDa and mass resolution of 9000 were set for both molecular ions and product ions. MS full scan was applied to acquire high abundant molecular ions [M+H]+ with […]

N2A expressing APPswe = system: N2A expressing APPswe; design: method as in J. Neurosci., (2005) 25:8807; details: ref J. Neurosci., (2005) 25:8807, read-out: In vitro IC50 Aβ inhibition; cited from earlier work
[8] = any metabolite, mice n = 6, three oral doses 100 mg/kg in two days

COc1cc(/C=C/C(=O)CC(=O)/C=C/c2ccc(O)c(OC)c2)ccc1O [Curcumin]
IC50 [1]: > 20 µM | Amyloid deposition ([2]; chow with 500 ppm for 22 weeks, ref J. Biol. Chem. (2005) 280: 5829, J. Biol. Chem. (2010) 285:28472): reduced

C/C=C1\[C@H]2C=C(C)C[C@]1(N)c1ccc(=O)[nH]c1C2 [Huperzine A]
IC50 (HEK293 expressing APPswe): ~10 µM

Oc1ccc(/C=C/c2cc(O)cc(O)c2)cc1 [Resveratrol]
IC50 (HEK293 expressing APP): ~20 µM | Brain Aβ42 reduced by [3]: 20%

CC(C)=CCC[C@](C)(O)[C@H]1CC[C@]2(C)[C@@H]1[C@H](O)C[C@@H]1[C@@]3(C)CC[C@H](O[C@@H]4O[C@H](CO)[C@@H](O)[C@H](O)[C@H]4O[C@@H]4O[C@H](CO)[C@@H](O)[C@H](O)[C@H]4O)C(C)(C)[C@@H]3CC[C@]12C [Rg3]
Brain Aβ1-42 reduced by ([2]; oral 25 mg/kg for 18 h, ref FASEB J. (2006) 20: E599): 30%

C[C@H]1CC[C@@]2(OC1)O[C@H]1C[C@H]3[C@@H]4CC[C@@H]5C[C@@H](O[C@@H]6O[C@H](CO)[C@H](O[C@@H]7O[C@H](CO)[C@@H](O)[C@H](O)[C@H]7O)[C@H](O)[C@H]6O[C@@H]6O[C@H](CO)[C@@H](O)[C@H](O)[C@H]6O)CC[C@]5(C)[C@H]4CC[C@]3(C)[C@H]1[C@@H]2C [TAV (4), timosaponin A V]
Aβ42-lowering effect (in words) ([4]; N2A-APPswe cells): effectively lowered | IC50 [4]: ~4.2 µM | effect on Aβ40 and Aβ38 [5]: much smaller effect

C[C@@H](CC[C@@]1(O)O[C@H]2C[C@H]3[C@@H]4CC[C@@H]5C[C@@H](O[C@@H]6O[C@H](CO)[C@H](O)[C@H](O)[C@H]6O[C@@H]6O[C@H](CO)[C@@H](O)[C@H](O)[C@H]6O)CC[C@]5(C)[C@H]4CC[C@]3(C)[C@H]2[C@@H]1C)CO[C@@H]1O[C@H](CO)[C@@H](O)[C@H](O)[C@H]1O [Timosaponin B II (23), timosaponin B II]
up-regulation of β-secretase induced by ferric chloride (β-secretase): inhibit

CC/C=C\C/C=C\C/C=C\C/C=C\C/C=C\C/C=C\CCC(=O)O [docosahexaenoic acid]
IC50 [6]: ~100 µM | Total Aβ reduced by ([2]; diet with 0.5% level for 5 months, ref J Neurosci. (2005) 25: 3032, J. Biol. Chem (2011) 286:14028): 70%

CC1CCC2(OC1)OC1CC3C4CCC5CC(OCC(=O)NCC6OC(O)C(O)C(O)C6O)CCC5(C)C4CCC3(C)C1C2C (stereo not drawn) [α-, β-OH SSG (34), α-, β-OH SSG]
IC50 [4]: 7.3 ± 4 µM | reduction of Aβ42 levels in the brain (Aβ42 levels in the brain): 87% ± 15% | Brain Metabolite [7, 8]: Not detected | Plasma Metabolite [7, 8]: Not detected | Brain Precursor ([7]; mice n = 6, three oral doses 100 mg/kg in two days): 0.025 ± 0.041 µM | Plasma Precursor ([7]; mice n = 6, three repeated oral doses 100 mg/kg in two days): 0.051 ± 0.072 µM

Epigallocatechin-3-gallate [Epigallocatechin-3-gallate (EGCG)]
IC50 (N2A expressing APPswe): ~20 µM
